According to patent US20060265028A1, “Hair growth” (QLT INC., priority 2003, published 2006):

How the values were obtained:
[1] = Safety: monitoring all adverse events during and after the PDT treatment; format: in vivo, human; conditions: single topical QLT0074 ointment 0.2% w/w plus 50 or 75 J/cm^2 red light; 10 subjects
Protocol: A total of 10 subjects were treated. All subjects were human males over 18 years of age and had type II or III Vertex alopecia, rated according to the modified Hamilton-Norwood scale.
All subjects received a single application of topical QLT0074 ointment 0.2% weight in weight (w/w) to two of three circular test sites on the vertex area of the scalp. The amount of ointment applied to each test site was approximately 224 mg (about 0.44mg of photosensitizer per test site). After 2 hours the excess drug was removed and red light (LED's—690nm) was administered to two of the three sites. The other test site served as a control with no drug or light administration.
Two light dose cohorts (50 and 75 J/cm^2) were investigated with each cohort having 5 subjects.
Safety was assessed by monitoring all adverse events during and after the treatment.

[2] = test system: human males with type II or III Vertex alopecia; test: Terminal hair counts 3 months after single topical PDT treatment, compared to baseline; format: in vivo; conditions: 3 months after treatment vs baseline, 5 subjects
Description: As used herein, the term “hair growth” refers to an increase in number of terminal hairs present. Terminal hair counts can be conducted in a number of ways. For example, the terminal hair can be counted by trained and validated technicians who perform a computer-assisted count on macrophotographs. In brief, a target area on the scalp is chosen, the hair clipped and the scalp permanently marked with a single dot tattoo in the center in order to facilitate the exact positioning at each subsequent photo session. The macrophotography is performed using a preset camera with a macro lens and a stand that provides a constant reproduction ratio and electronic flashes that reproducibly illuminate the area to photograph. The images are taken in triplicate, centering the camera using the tattoo and the color slide films are processed at a central facility. The quality of the images is assessed and large transparencies are made of the best images. The terminal hairs on the target circle of the transparencies are then counted by the trained technicians.
A total of 10 subjects were treated. All subjects were human males over 18 years of age and had type II or III Vertex alopecia, rated according to the modified Hamilton-Norwood scale. […]
The efficacy was assessed by hair counts 3 months after the treatment and compared to baseline counts.

[3] = topical 0.5% hematoporphyrin and UVA three times a week for eight weeks; first week of treatment; cited from earlier work
[4] = test system: alopecia areata; conditions: cited from earlier work

For `C=Cc1c(C)c2cc3nc(cc4[nH]c(cc5nc(cc1[nH]2)C(C)=C5CCC(=O)OCCO)c(CCC(=O)OCCO)c4C)[C@@]1(C)C3=CC=C(C(=O)OC)[C@H]1C(=O)OC` [QLT0074], the serious adverse events [1] was “No serious adverse events were reported”, the “% change in terminal hair count” value ([2]; 50 J/cm^2 red light (690nm) 2 hours after topical QLT0074 ointment 0.2% w/w) was “+8%” and the “% change in terminal hair count” value ([2]; 75 J/cm^2 red light (690nm) 2 hours after topical QLT0074 ointment 0.2% w/w) was “+4%”.

For `CC1=C(CCC(=O)O)c2cc3[nH]c(cc4nc(cc5[nH]c(cc1n2)c(C)c5C(C)O)C(C)=C4C(C)O)c(C)c3CCC(=O)O` (stereo not drawn) [hematoporphyrin], the “skin reactions at treated sites” value [3] is given as “significant erythema and mild scaling followed by hyperpigmentation”.

In the case of `COc1c2occc2c(OC)c2c(=O)cc(C)oc12` [khellin], the patients treated successfully ([4]; 2% khellin and UVA, alopecia areata) is listed as 5 of the 10 and the phototoxicity ([4]; khellin and UVA) is listed as “did not cause phototoxicity”.
